The source of these data is article PMC11207073, “Protein Tyrosine Phosphatase 1B Inhibitors of Pueraria lobata Based on the Spectrum–Effect Relationship by Q-Marker Selection” (Molecules, 2024).

The target in this assay is T1, Protein tyrosine phosphatase 1B (PTP1B) (Homo sapiens, UniProt P18031).
T1 construct: gene PTPN1
T1 sequence (P18031 1-435): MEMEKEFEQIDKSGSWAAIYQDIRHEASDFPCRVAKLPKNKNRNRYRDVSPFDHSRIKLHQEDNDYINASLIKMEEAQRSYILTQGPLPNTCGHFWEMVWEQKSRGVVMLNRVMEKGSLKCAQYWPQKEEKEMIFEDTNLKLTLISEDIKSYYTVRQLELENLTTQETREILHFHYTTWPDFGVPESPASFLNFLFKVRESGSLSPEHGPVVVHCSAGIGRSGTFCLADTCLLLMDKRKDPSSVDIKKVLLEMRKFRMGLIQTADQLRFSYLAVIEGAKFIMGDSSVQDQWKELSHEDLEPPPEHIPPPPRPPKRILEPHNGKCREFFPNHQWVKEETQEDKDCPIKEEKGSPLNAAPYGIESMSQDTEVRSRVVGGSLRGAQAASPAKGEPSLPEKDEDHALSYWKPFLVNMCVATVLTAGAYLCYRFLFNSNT
The assay is described as follows: pNPP phosphatase assay with commercial PTP1B, absorbance at […] nm. The class given is biochemical.
As for `COc1cc2c(=O)c(-c3ccc(O)cc3)coc2cc1O[C@@H]1O[C@H](CO)[C@@H](O)[C@H](O)[C@H]1O` (single isomer, unassigned) [peak 9, glycitin], the IC50 (in general, the concentration needed to halve the response being measured) was 23.7 µM. For `O=c1c(-c2ccc(O)cc2)coc2cc(O[C@@H]3O[C@H](CO)[C@@H](O)[C@H](O)[C@H]3O)cc(O)c12` (single isomer, unassigned) [peak 11, genistin], half-maximal inhibition (IC50) required 38.1 µM.

`COc1ccc(-c2coc3c([C@@H]4O[C@H](CO)[C@@H](O)[C@H](O)[C@H]4O)c(O)ccc3c2=O)cc1` (single isomer, unassigned) [peak 12, 4′-methoxypuerarin] gave an IC50 of 21.7 µM.
